{"source": "patent US20230404887A1", "about": "“COMPOSITIONS TO LIMIT OR ELIMINATE THE PERCEPTION OF SWEAT MALODOR” (Firmenich SA, priority 2020, published 2023)", "key": {"[1]": {"experiment": "Expert perfumer evaluation of malodor reduction, dynamic olfactometer, against 3M3SH", "parameters": "species or system human", "conditions": "for EFFECTIVE CONCENTRATION: MO 3M3SH held fixed at mid-intensity (0.5), headspace concentration providing an effective level; for EXPERT RATING: MO 3M3SH held fixed at mid-intensity (0.5 on scale 0-1), rating of degree of malodor reduction at the effective concentration", "experimental": "(§1) The effectiveness of perfuming materials in compositions to reduce the perception of, for example, axillary sweat malodors, was evaluated by an expert perfumer by 1) selecting target axillary malodor components, 2) delivering target malodor components and candidate malodor reducing materials to the nose of an expert perfumer at carefully controlled concentrations, 3) having the expert perfumer identify the concentration at which malodor reduction was obtained, and 4) rating the degree of reduction achieved at the concentration identified in step 3.\n(§2) In this method, a dynamic multi-channel olfactometer was used to precisely deliver known gas phase concentrations of the test materials, using forced evaporation, into a stream of air emanating from a smelling port. The appropriate concentration of the malodor component was established prior to its being mixed with the candidate malodor reducing substance. The concentration was set at a concentration sufficient to produce an intensity of 0.5 (mid-intensity) on a scale of 0-1. The expert perfumer then dynamically adjusted the concentration of the candidate malodor reducing substance to determine the effective concentration, while maintaining a fixed concentration of the malodor component. Once the appropriate concentration had been determined, the expert perfumer evaluated the perception of the mixtures repeatedly over a period of several minutes, taking breaks in between sniffs to avoid adaptation to the components being tested, before providing a rating.\n(§3) Tests were performed in a forced-evaporation, dynamic olfactometer, with malodor component concentrations held fixed at a mid-intensity. Ratings of effectiveness were based in the following scale: −2 (significant increase in malodor), −1 (slight increase in malodor), 0 (no effect), 1 (slight malodor reduction), 2 (good malodor reduction), 3 (complete malodor reduction). The malodor (MO) component abbreviations are 3H3MHA (3-methyl-3-hydroxyhexanoic acid), 3M2HA (3-methyl-2-hexenoic acid), 3M3SH (3-methyl-3-sulphanylhexanol)."}, "[2]": {"experiment": "Expert perfumer evaluation of malodor reduction, dynamic olfactometer, against 3M2HA", "parameters": "species or system human", "conditions": "for EFFECTIVE CONCENTRATION: MO 3M2HA held fixed at mid-intensity (0.5), headspace concentration providing an effective level; for EXPERT RATING: MO 3M2HA held fixed at mid-intensity (0.5 on scale 0-1), rating of degree of malodor reduction at the effective concentration", "experimental": "as §1, §2, §3"}}}
{"molecule": "CC(=O)/C=C/C1=C(C)CCCC1(C)C", "values": [{"measurement": "EFFECTIVE CONCENTRATION", "setting": "[1]", "result": "1.17E−01", "unit": "micrograms/L AIR"}, {"measurement": "EXPERT RATING", "setting": "[1]", "result": 3}, {"measurement": "EFFECTIVE CONCENTRATION", "setting": "[2]", "result": "5.83E−02", "unit": "micrograms/L AIR"}, {"measurement": "EXPERT RATING", "setting": "[2]", "result": 3}]}
{"molecule": "3-(2/4-ETHYLPHENYL)-2,2-DIMETHYLPROPANAL", "values": [{"measurement": "EFFECTIVE CONCENTRATION", "setting": "[1]", "result": "7.33E−01", "unit": "micrograms/L AIR"}, {"measurement": "EXPERT RATING", "setting": "[1]", "result": 2}, {"measurement": "EFFECTIVE CONCENTRATION", "setting": "[2]", "result": "3.67E−01", "unit": "micrograms/L AIR"}, {"measurement": "EXPERT RATING", "setting": "[2]", "result": 3}]}
{"molecule": "CCCCCC1(C)CCC(C)(C)C1=O", "note": "(racemic)", "values": [{"measurement": "EFFECTIVE CONCENTRATION", "setting": "[2]", "result": "1.22E+00", "unit": "micrograms/L AIR"}, {"measurement": "EXPERT RATING", "setting": "[2]", "result": 2}]}
{"molecule": "CCC(C)CCCC(C)(C)O", "note": "(racemic)", "values": [{"measurement": "EFFECTIVE CONCENTRATION", "setting": "[1]", "result": "1.08E+01", "unit": "micrograms/L AIR"}, {"measurement": "EXPERT RATING", "setting": "[1]", "result": 2}, {"measurement": "EFFECTIVE CONCENTRATION", "setting": "[2]", "result": "5.40E+00", "unit": "micrograms/L AIR"}, {"measurement": "EXPERT RATING", "setting": "[2]", "result": 2}]}
{"molecule": "C=CC(C)CCCC(C)(C)O", "note": "(racemic)", "values": [{"measurement": "EFFECTIVE CONCENTRATION", "setting": "[2]", "result": "4.33E+00", "unit": "micrograms/L AIR"}, {"measurement": "EXPERT RATING", "setting": "[2]", "result": 2}]}
{"molecule": "CCC(C)(O)CCCC(C)C", "note": "(racemic)", "values": [{"measurement": "EFFECTIVE CONCENTRATION", "setting": "[2]", "result": "9.27E+00", "unit": "micrograms/L AIR"}, {"measurement": "EXPERT RATING", "setting": "[2]", "result": 2}]}
{"molecule": "CC(C)=C[C@H]1C[C@@H](C)CCO1", "note": "(racemic) [(2RS,4SR)-4-METHYL-2-(2-METHYL-1-PROPEN-1-YL)TETRAHYDRO-2H-PYRAN]", "values": [{"measurement": "EFFECTIVE CONCENTRATION", "setting": "[1]", "result": "6.83E−01", "unit": "micrograms/L AIR"}, {"measurement": "EXPERT RATING", "setting": "[1]", "result": 1}, {"measurement": "EFFECTIVE CONCENTRATION", "setting": "[2]", "result": "6.83E−01", "unit": "micrograms/L AIR"}, {"measurement": "EXPERT RATING", "setting": "[2]", "result": 2}]}
{"molecule": "C[C@H]1CCO[C@@H](c2ccccc2)C1", "note": "(racemic) [(2RS,4SR)-4-METHYL-2-PHENYLTETRAHYDRO-2H-PYRAN]", "values": [{"measurement": "EFFECTIVE CONCENTRATION", "setting": "[1]", "result": "2.67E−01", "unit": "micrograms/L AIR"}, {"measurement": "EXPERT RATING", "setting": "[1]", "result": 3}]}
{"molecule": "CC1(C)CCC[C@]2(C)[C@H]3CCO[C@]3(C)CC[C@@H]12", "note": "(racemic) [(3aRS,5aSR,9aSR,9bRS)-3a,6,6,9a-TETRAMETHYLDODECAHYDRONAPHTHO[2,1-b]FURAN]", "values": [{"measurement": "EFFECTIVE CONCENTRATION", "setting": "[1]", "result": "2.17E−03", "unit": "micrograms/L AIR"}, {"measurement": "EXPERT RATING", "setting": "[1]", "result": 3}, {"measurement": "EFFECTIVE CONCENTRATION", "setting": "[2]", "result": "4.33E−03", "unit": "micrograms/L AIR"}, {"measurement": "EXPERT RATING", "setting": "[2]", "result": 3}]}
{"molecule": "CC(=O)OC(C)(C)C1CC=C(C)CC1", "note": "(racemic) [(+−)-2-(4-METHYL-3-CYCLOHEXEN-1-YL)-2-PROPANYL ACETATE]", "values": [{"measurement": "EFFECTIVE CONCENTRATION", "setting": "[1]", "result": "1.08E+00", "unit": "micrograms/L AIR"}, {"measurement": "EXPERT RATING", "setting": "[1]", "result": 3}, {"measurement": "EFFECTIVE CONCENTRATION", "setting": "[2]", "result": "1.08E+00", "unit": "micrograms/L AIR"}, {"measurement": "EXPERT RATING", "setting": "[2]", "result": 3}]}
{"molecule": "CCCCCCCCCC(C)C=O", "note": "(racemic) [(+−)-2-METHYLUNDECANAL]", "values": [{"measurement": "EFFECTIVE CONCENTRATION", "setting": "[2]", "result": "2.33E−03", "unit": "micrograms/L AIR"}, {"measurement": "EXPERT RATING", "setting": "[2]", "result": 2}]}
{"molecule": "CCC(C)c1ccc2ncccc2c1", "note": "(racemic) [(+−)-6-SEC-BUTYLQUINOLINE]", "values": [{"measurement": "EFFECTIVE CONCENTRATION", "setting": "[1]", "result": "1.83E−02", "unit": "micrograms/L AIR"}, {"measurement": "EXPERT RATING", "setting": "[1]", "result": 3}]}
{"molecule": "CC1C/C=C/CCCCCCCCCC(=O)C1", "note": "(racemic) [(+−)-(5E)-3-METHYL-5-CYCLOPENTADECEN-1-ONE]", "values": [{"measurement": "EFFECTIVE CONCENTRATION", "setting": "[1]", "result": "5.83E−01", "unit": "micrograms/L AIR"}, {"measurement": "EXPERT RATING", "setting": "[1]", "result": 1}, {"measurement": "EFFECTIVE CONCENTRATION", "setting": "[2]", "result": "2.33E−01", "unit": "micrograms/L AIR"}, {"measurement": "EXPERT RATING", "setting": "[2]", "result": 2}]}
{"molecule": "C=CC(C)(CC/C=C(\\C)CC)OC(C)=O", "note": "(racemic) [(+−)-(6E)-3,7-dimethyl-1,6-nonadien-3-yl acetate]", "values": [{"measurement": "EFFECTIVE CONCENTRATION", "setting": "[1]", "result": "6.67E+00", "unit": "micrograms/L AIR"}, {"measurement": "EXPERT RATING", "setting": "[1]", "result": 2}]}
{"molecule": "CC/C=C(\\C)C(O)CCCCC", "note": "(racemic) [(+−)-(E)-4-METHYL-3-DECEN-5-OL]", "values": [{"measurement": "EFFECTIVE CONCENTRATION", "setting": "[1]", "result": "4.27E−01", "unit": "micrograms/L AIR"}, {"measurement": "EXPERT RATING", "setting": "[1]", "result": 3}, {"measurement": "EFFECTIVE CONCENTRATION", "setting": "[2]", "result": "2.13E−01", "unit": "micrograms/L AIR"}, {"measurement": "EXPERT RATING", "setting": "[2]", "result": 3}]}
{"molecule": "O=c1ccc2ccccc2o1", "note": "[2-CHROMENONE]", "values": [{"measurement": "EFFECTIVE CONCENTRATION", "setting": "[1]", "result": "7.87E−02", "unit": "micrograms/L AIR"}, {"measurement": "EXPERT RATING", "setting": "[1]", "result": 3}, {"measurement": "EFFECTIVE CONCENTRATION", "setting": "[2]", "result": "9.83E−03", "unit": "micrograms/L AIR"}, {"measurement": "EXPERT RATING", "setting": "[2]", "result": 3}]}
{"molecule": "CCc1occc(=O)c1O", "note": "[2-ETHYL-3-HYDROXY-4(4H)-PYRANONE]", "values": [{"measurement": "EFFECTIVE CONCENTRATION", "setting": "[1]", "result": "1.83E−02", "unit": "micrograms/L AIR"}, {"measurement": "EXPERT RATING", "setting": "[1]", "result": 2}, {"measurement": "EFFECTIVE CONCENTRATION", "setting": "[2]", "result": "1.83E−02", "unit": "micrograms/L AIR"}, {"measurement": "EXPERT RATING", "setting": "[2]", "result": 3}]}
{"molecule": "COc1ccc2ccccc2c1", "note": "[2-METHOXYNAPHTHALENE]", "values": [{"measurement": "EFFECTIVE CONCENTRATION", "setting": "[1]", "result": "5.00E−02", "unit": "micrograms/L AIR"}, {"measurement": "EXPERT RATING", "setting": "[1]", "result": 3}, {"measurement": "EFFECTIVE CONCENTRATION", "setting": "[2]", "result": "1.25E−02", "unit": "micrograms/L AIR"}, {"measurement": "EXPERT RATING", "setting": "[2]", "result": 3}]}
{"molecule": "OCCc1ccccc1", "note": "[2-PHENYLETHANOL]", "values": [{"measurement": "EFFECTIVE CONCENTRATION", "setting": "[1]", "result": "1.08E+00", "unit": "micrograms/L AIR"}, {"measurement": "EXPERT RATING", "setting": "[1]", "result": 2}, {"measurement": "EFFECTIVE CONCENTRATION", "setting": "[2]", "result": "5.42E−01", "unit": "micrograms/L AIR"}, {"measurement": "EXPERT RATING", "setting": "[2]", "result": 3}]}
{"molecule": "O=CCCc1ccccc1", "note": "[3-PHENYLPROPANAL]", "values": [{"measurement": "EFFECTIVE CONCENTRATION", "setting": "[1]", "result": "2.60E+00", "unit": "micrograms/L AIR"}, {"measurement": "EXPERT RATING", "setting": "[1]", "result": 3}, {"measurement": "EFFECTIVE CONCENTRATION", "setting": "[2]", "result": "2.60E+00", "unit": "micrograms/L AIR"}, {"measurement": "EXPERT RATING", "setting": "[2]", "result": 3}]}
